The values that follow come from paper PMC12062876, “Efficient constitution of a library of rotenoid analogs active against Trypanosoma cruzi from a digitalized plant extract collection” (RSC Advances, 2025).

Read-outs that look alike come from different tables or passages of the source.

Data set [1] in a line: Cytotoxicity assay: L-6 cells. Format: cell-based. The conditions noted are these: rat skeletal myoblast (L6 cells); means of two independent assays. As for the experimental part:
The pure compounds cytotoxicity was assessed against L6 cells as described in ref. [27].

For data set [2], the system named is T. cruzi amastigotes. Kind of data set: Activity against intracellular T. cruzi amastigotes. Type of data set: cell-based, Trypanosoma cruzi. The conditions noted are these: for Selectivity index: SI = IC50 cytotoxicity/IC50 against T. cruzi; for IC50: Trypanosoma cruzi, read-out: IC50 T. cruzi amastigotes; for activity against T. cruzi (in words): intracellular amastigotes. The source says:
The bioactivity of isolated compounds against intracellular T. cruzi amastigotes grown in rat L6 […] is presented in Table 1. […] Rotenone and deguelin are known to be strong mitochondrial complex I (also known as NADH:ubiquinone oxidoreductase) inhibitors,[43–45] while different activities between closely related rotenoids (rotenone, 5′-α-epirotenone, and 5′-β-epirotenone) has already been shown. […] The variation in activity observed on our rapidly generated series of structural analogs points in the same direction. As shown in Fig. 3 and Table 1, the cyclic and bent form of the rotenoid at the B/C ring junction is essential for activity, since compounds 40 and 41 were not active.
The pure compounds activity was assessed against T. cruzi amastigotes as described in ref. [27].

[3] abbreviates: intracellular amastigotes grown in rat L6 cells, means of two independent assays.

Take `Oc1ccc2c(c1)OC[C@H]1c3cc4c(cc3O[C@@H]21)OCO4` [Compound 16, maackiain]: the results for the IC50 in data set [1] and in data set [2] (setting [3]) were 156 µM and 119 µM, respectively. Besides, the Selectivity index in data set [2] is 1.3.

In the case of `COc1cc(O)ccc1[C@@H]1COc2cc(O)c(CC=C(C)C)cc2C1` [Compound 1, 2′-O-methylmanuifolin H], the IC50 (as a rule, the midpoint of a concentration-inhibition curve) in data set [1] stood at 99 µM; in data set [2] (setting [3]), 28.2 µM. The same compound yielded a Selectivity index in data set [2] of 3.5.

Consider `CC(C)=CCc1c(O)ccc(C(=O)/C=C/c2ccc(O)cc2)c1O` [Compound 7, isobavachalcone], for which the IC50 in data set [1] came out at 104 µM; in data set [2] (setting [3]) it was 60.1 µM. The compound also returned a Selectivity index in data set [2] of 1.7.

Take `COc1c2c(cc3ccoc13)C(=O)[C@@]1(O)c3cc4c(cc3OC[C@H]1O2)OCO4` (relative stereo) [Compound 29, 12a-hydroxypachyrhizone]: the IC50 in data set [1] was found to be 125 µM; in data set [2] (setting [3]), 93.2 µM. The same compound had a Selectivity index in data set [2] of 1.3.

For `C=C(C)/C=C/c1c(OC)ccc2c1OC(c1ccccc1)CC2=O` (stereo not shown) [Compound 9, dehydroisoderricin], the IC50 in data set [1] stood at 95.4 µM; in data set [2] (setting [3]), 66.2 µM. In data set [2], the Selectivity index stood at 1.4.

Take `COc1cc2c(cc1OC)[C@@H]1C(=O)c3ccc4occc4c3O[C@@H]1CO2` [Compound 35, elliptone]: the IC50 in data set [1] was found to be 99 µM; in data set [2] (setting [3]), 18.2 µM. The same compound came in with a Selectivity index in data set [2] of 5.4.

For the compound `COc1cc2c(cc1-c1coc3cc4occc4cc3c1=O)OCO2` [Compound 28, dehydroneotenone], the values for the IC50 in data set [1] and in data set [2] (setting [3]) were 18.3 µM and 3.59 µM, respectively. This compound registered a Selectivity index in data set [2] of 5.1.

Consider `CC1(C)C=Cc2c(ccc3c(=O)c(-c4cc(O)c5c(c4)OCO5)coc23)O1` [Compound 40, norisojamaicin], for which the results for the IC50 in data set [1] and in data set [2] (setting [3]) were 123 µM and 21.8 µM, respectively. The compound further yielded a Selectivity index in data set [2] of 5.7. In addition, the “activity against T. cruzi (in words)” value in data set [2] is given as “not active”.

As to `CC(C)=CCc1cc2c(cc1O)OC[C@@H](c1ccc(O)cc1O)C2` [Compound 3, manuifolin H], the values for the IC50 in data set [1] and in data set [2] (setting [3]) were 106 µM and 28.3 µM, respectively. In data set [2], this compound displayed a Selectivity index of 3.7.

Regarding `COc1cc(O)ccc1C1COc2cc(O)ccc2C1` (stereo not shown) [Compound 4, 7,4′-dihydroxy-2′-methoxyisoflavan], the IC50 in data set [1] came out at 358 µM; in data set [2] (setting [3]) it was 247 µM. The Selectivity index in data set [2] was determined as 1.4.

Consider `C=C(CO)C1Cc2cc3c(cc2O1)OCC1c2cc4c(cc2OC31)OCO4` (stereo not drawn) [Compound 18, (2′R)-4′-hydroxyemoroidocarpan], for which the IC50 came to 118 µM in data set [1] and 40.1 µM in data set [2] (setting [3]). The Selectivity index in data set [2] was determined as 2.9.

Regarding `COc1ccc(-c2coc3c4c(cc(O)c3c2=O)OC(C)(C)C=C4)cc1O` [Compound 41, 3′-hydroxy-4′-O-metyhlerrone], the IC50 in data set [1] came to 55.7 µM; in data set [2] (setting [3]), 8.04 µM. This compound also returned a Selectivity index in data set [2] of 6.9. For the same compound, in data set [2], the “activity against T. cruzi (in words)” value is given as “not active”.

`CC1(C)C=Cc2c(ccc(-c3coc4cc(O)c(O)cc4c3=O)c2O)O1` [Compound 21, 5′,6,7-trihydroxy-2′,2′-dimethyl-2′H,4H-[3,6′-bichromen]-4-one]: the half-inhibitory concentration (IC50) is 76.6 µM in data set [1] and 56.8 µM in data set [2] (setting [3]). The compound further returned a Selectivity index in data set [2] of 1.4.

Turning to `COc1ccc(-c2coc3cc(O)ccc3c2=O)cc1` [Compound 22, formononetin], the IC50 in data set [1] is 224 µM; in data set [2] (setting [3]), 217 µM. In addition, the Selectivity index in data set [2] was found to be 1.0.

`COc1cc2c(cc1OC)[C@]1(O)C(=O)c3ccc4c(c3O[C@@H]1CO2)C=CC(C)(C)O4` [Compound 38, tephrosin]: the IC50 was 72.4 µM in data set [1] and 0.04 µM in data set [2] (L6, in Rattus norvegicus). This compound came in with a Selectivity index in data set [2] of 1937.0.

For the compound `CC(=O)OC(C1COc2ccc3c(c21)OC(c1ccccc1)CC3=O)C(C)(C)O` (stereo not shown) [Compound 13, 2-hydroxy-2-methyl-1-(4-oxo-2-phenyl-3,4,8,9-tetrahydro-2H-furo[2,3-h]chromen-9-yl)propyl acetate], the IC50 in data set [1] is 131 µM; in data set [2] (setting [3]) it was 123 µM. In data set [2], this compound showed a Selectivity index of 1.1.

Consider `CC1(C)C=Cc2c(ccc(-c3coc4cc(O)ccc4c3=O)c2O)O1` [Compound 20, glabrone], for which the IC50 was found to be 186 µM in data set [1] and 149 µM in data set [2] (setting [3]). This compound also had a Selectivity index in data set [2] of 1.2.

With `CC(C)(O)C(OC(=O)C=Cc1ccccc1)C1COc2ccc3c(c21)OC(c1ccccc1)CC3=O` (stereo not shown) [Compound 14, 2-hydroxy-2-methyl-1-(4-oxo-2-phenyl-3,4,8,9-tetrahydro-2H-furo[2,3-h]chromen-9-yl)propyl cinnamate], the results for the IC50 in data set [1] and in data set [2] (setting [3]) were 81.6 µM and 16 µM, respectively. This compound showed a Selectivity index in data set [2] of 5.1.

On to `COc1cc2occ(-c3ccc4c(c3)OCO4)c(=O)c2cc1O` [Compound 24, acicerone], for which the results for the concentration for half-maximal inhibition (IC50) in data set [1] and in data set [2] (setting [3]) were 186 µM and 86.8 µM, respectively. The Selectivity index in data set [2] is 2.1.

Take `COc1c(-c2coc3cc4c(cc3c2=O)C=CC(C)(C)O4)ccc2c1C=CC(C)(C)O2` [Compound 23, munetone]: the values for the IC50 in data set [1] and in data set [2] (setting [3]) were 38.8 µM and 7.35 µM, respectively. This compound also registered a Selectivity index in data set [2] of 5.3.

In the case of `CC(=O)OC1C2c3c(ccc4c3OC(c3ccccc3)CC4=O)OC2OC1(C)C` (single isomer, unassigned; (-)) [Compound 11, (−)-purpurin], the results for the IC50 in data set [1] and in data set [2] (setting [3]) were 6.25 µM and 1.78 µM, respectively. Also, in data set [2], the Selectivity index is 3.5.

`CC(C)=CCc1cc2c(cc1O)OCC(c1ccc(O)cc1)C2O` (stereo not shown) [Compound 2, bavaisoflavanol]: the IC50 in data set [1] worked out at 49.5 µM; in data set [2] (setting [3]) it was 43.1 µM. The Selectivity index in data set [2] stood at 1.1.

Take `COc1cc2c(cc1OC)[C@]1(O)[C@H](OC(C)=O)c3ccc4occc4c3O[C@@H]1CO2` (relative stereo) [Compound 33, 12-deoxo-12α-acetoxy-12a-β-hydroxyelliptone]: the results for the IC50 in data set [1] and in data set [2] (setting [3]) were 98.2 µM and 65.1 µM, respectively. Moreover, the Selectivity index in data set [2] worked out at 1.5.

Turning to `COc1cc2c(cc1OC)[C@]1(O)C(=O)c3ccc4occc4c3O[C@@H]1CO2` [Compound 36, 12a-hydroxyelliptone], the IC50 was determined as 100 µM in data set [1] and 5.42 µM in data set [2] (setting [3]). In data set [2], the Selectivity index is on record as 18.5.

As to `O=c1cc(-c2ccccc2)oc2c1ccc1occc12` [Compound 10, lanceolatin B], the IC50 in data set [1] came out at 130 µM; in data set [2] (L6, in Rattus norvegicus) it was 9.58 µM. Moreover, the Selectivity index in data set [2] worked out at 13.6.

With `COc1ccc(-c2coc3cc(OC)c(O)cc3c2=O)cc1` [Compound 25, alfalone], the values for the IC50 in data set [1] and in data set [2] (setting [3]) were 263 µM and 241 µM, respectively. For the same compound, the Selectivity index in data set [2] is given as 1.1.

For the compound `COc1cc(O)ccc1C1COc2cc3c(cc2C1)CC(C(C)(C)O)O3` (stereo not shown) [Compound 6, 4-(2-(2-hydroxypropan-2-yl)-2,3,6,7-tetrahydro-5H-furo[3,2-g]chromen-6-yl)-3-methoxyphenol], the results for the IC50 in data set [1] and in data set [2] (setting [3]) were 154 µM and 203 µM, respectively. This compound also came in with a Selectivity index in data set [2] of 0.8.

In the case of `COc1cc2c(cc1OC)[C@]1(O)C(=O)c3cc4ccoc4cc3O[C@@H]1CO2` (relative stereo) [Compound 31, 12a-hydroxyerosone], the IC50 turned out to be 113 µM in data set [1] and 19.7 µM in data set [2] (setting [3]). In data set [2], this compound returned a Selectivity index of 5.7.

For the compound `C=C(C)[C@H]1Cc2cc3c(cc2O1)oc(=O)c1c2cc4c(cc2oc31)OCO4` [Compound 19, tephcalostan], the IC50 in data set [1] came out at 119 µM; in data set [2] (setting [3]) it was 65.6 µM. Also, in data set [2], the Selectivity index is 1.8.

Regarding `COc1c(C(=O)/C=C(\O)c2ccccc2)ccc2occc12` [Compound 8, pongamol], the values for the IC50 in data set [1] and in data set [2] (setting [3]) were 73.6 µM and 26.8 µM, respectively. In data set [2], the Selectivity index is 2.7.

Consider `O=C(Cn1ccnc1[N+](=O)[O-])NCc1ccccc1` [Benznidazole, reference compound], for which the IC50 in data set [2] (setting [3]) worked out at 3.14 µM.

In the case of `COc1cc([C@@H]2c3cc4c(cc3[C@H](O)[C@H]3COC(=O)[C@H]23)OCO4)cc(OC)c1OC` [Podophyllotoxin, reference compound], the IC50 in data set [1] was 0.02 µM.

Take `C=C(C)[C@H]1Cc2cc3c(cc2O1)OC[C@H]1c2cc4c(cc2O[C@@H]31)OCO4` [Compound 17, emoroidocarpan]: the IC50 in data set [1] was 84.8 µM; in data set [2] (setting [3]), 47.8 µM. Further, the Selectivity index in data set [2] is 1.8.

Take `O=C1c2cc3ccoc3cc2O[C@@H]2COc3cc4c(cc3[C@]12O)OCO4` (relative stereo) [Compound 30, 12a-hydroxydolineone]: the figures for the IC50 in data set [1] and in data set [2] (setting [3]) were 141 µM and 195 µM, respectively. This compound had a Selectivity index in data set [2] of 0.7.

`COc1cc2c(cc1OC)C1C(CO2)Oc2c(ccc3occc23)C1OC(C)=O` (stereo not drawn) [Compound 34, 12-deoxo-12α-acetoxyelliptone]: the IC50 turned out to be 104 µM in data set [1] and 27.1 µM in data set [2] (setting [3]). The compound also returned a Selectivity index in data set [2] of 3.8.

Take `CC(C)=CCc1c(O)cc2occ(-c3ccc(O)cc3)c(=O)c2c1O` [Compound 27, wighteone]: the IC50 in data set [1] came to 104 µM; in data set [2] (setting [3]), 46.6 µM. Also, in data set [2], the Selectivity index was 2.2.
